Ends that are not written are not given here.
Experiments:
[1] = system: mouse peritoneal macrophages; settings: administered to mice; not inhibited by naloxone; cited from earlier work
[2] = non-thermal and mechanical analgesia, administered ICV; cited from earlier work
parental HEK-293 cells = assay: FLIPR calcium mobilization assay, parental (non-transfected) HEK-293 cells; assay type: cell-based; settings: wild type (parental, non-transfected) HEK-293 cells; Fluo-3
Experimental: (§1) A functional assay was performed with FLIPR (Fluorescent Imaging Plate Reader, Molecular Devices) using the fluorescent calcium indicator Fluo-3 (Molecular Probes) on a 96 well platform. HEK-293 cells, either expressing the receptor or wild type cells, were loaded with Fluo-3 as follows. Stable HEK-293 clones expressing rat and human MAS receptor or parental cells were plated at a density of 10,000 cells/well in a 96 well plate. On the day of the experiment, the MAS receptor cells were loaded with fluorescent solution (Dulbecco's modified medium with 10% fetal bovine serum containing 4 μM Fluo-3 and 20% pluronic acid). The cells were incubated at 37° C. for one hour in a humidified chamber. Following the incubation step, cells were washed five times in Hanks' with 20 mM Hepes and 0.1% BSA (pH 7.4). The cells were analyzed using the FLIPR system to measure the mobilization of intracellular calcium in response to different compounds.

MAS receptor = assay: FLIPR calcium mobilization assay, HEK-293 cells expressing MAS receptor; assay type: cell-based, rat and human; settings: HEK-293 cells expressing the clone MAS receptor; Fluo-3
Experimental: HEK-293 cells were transfected with a mammalian expression construct coding for the rat and human MAS receptor (pcDNA 3.1 vector, Invitrogen) using the Superfect reagent (Qiagen). A stable receptor pool of MAS receptor was developed by applying a selection marker (G418, 0.9 mg/ml) and the cells were maintained in this selection medium. The presence of mRNA specific for clone MAS receptor was assessed by Northern blot analysis and by the reverse transcriptase polymerase chain reaction (RT-PCR).
as §1

| Substance | phagocytosis [1] | analgesia [2] | calcium response (FLIPR signal) (parental HEK-293 cells) | calcium response (FLIPR signal) (MAS receptor) |
| --- | --- | --- | --- | --- |
| YGGFLRRIRPKLKWDNQ-COOH (YGGFLRRIRPKLKWDNQ-OH) [Dynorphin A] | enhanced phagocytosis | moderately effective | not in the wild type cells | consistently elicited signals |
| Dynorphin A 1-13: analogue (fragment 1-13) of Dynorphin A (YGGFLRRIRPKLK; Dynorphin A(1-13); UniProt P01213 207-219, looked up, fragment) |  |  | not in the wild type cells | consistently elicited signals |
| YGGFLRRIRPKLKWDNQ-COOH or NH2 (not fully specified; printed as YGGFLRRIRPKLKWDNQ-COOH or NH2) [Dynorphin A-NH2, C-terminal amide analogue of Dynorphin A] |  |  | not in the wild type cells | consistently elicited signals |

— US7078177B2, “Method of assaying for agonists or antagonist of Dynorphin A binding to the MAS receptor” (AstraZeneca AB, priority 2000, dated 2006)
